In assay [1] the test system is aerobic, culturable bacterial community from the R. flavipes digestive tract. As to the kind of experiment: Imidacloprid-loaded discs on plated gut homogenates. The format is cell-based. Conditions: concentrations of 1-1000-fold higher than used in the feeding assays. How it is done:
(§1) After incubation at 26° C. for 24 hours, plates were examined—spots producing 3-10 CFUs were used to estimate the total number of aerobic culturable bacteria per termite. In addition, dilutions of gut homogenates were directly plated onto nutrient agar; discs loaded with serial dilutions of imidacloprid were added to these plates to examine its direct impact on the culturable bacteria.

The test system of assay [2] is host gut and protist/symbiont genes. The format is in vivo. How it is done: After two days, a subset of ten termites was removed from each of the replicate colony treatments (20 total samples), cold-immobilized, surface-sterilized by a serial rinse in 0.3% sodium hypochlorite (1×) and sterilized water (2×), and dissected on Parafilm to collect digestive tracts, including salivary glands. Digestive tracts were transferred into RLA Lysis Buffer (Promega, Fitchburg, Wis., USA) and stored at −70° C. until RNA isolation. RNA extraction and cDNA synthesis was performed.
Experiments were designed after MIAME guidelines. A type II microarray design was used with a common-reference strategy. The common reference consisted of a normalized blend of all RNA samples included in the experiment. This common reference was co-hybridized against each replicate sample on single microarrays. Dye swaps were performed between replicate samples and references to check for potential dye impacts on spot intensity. […] Specifically, such microarrays contained a mix of ˜14,500 cDNA oligonucleotides representing 10,500 host gut and protist/symbiont genes, including stereotypical immune response genes, thereby providing simultaneous assessments of host and protist gene expression. Reported analyses consisted of five pairwise comparisons to a common control as denoted by the numbers 1-5 in FIG. 4. More specific microarray data are provided in S15-S20 Tables of Sen et al. 2015, PLoS ONE 10(4): e0123391 (the “Sen Article”), which is hereby incorporated by reference herein in its entirety. […] Genbank accession numbers for sequences at each microarray position are provided in S21-S23 Tables of the Sen Article.
Before comparative analysis, the individual signal intensity values obtained from the microarray probes were log-transformed (using 2 as the base) and normalized among all individual samples included in the study. […] After the data were normalized, t-tests were used to make probe-by-probe comparisons among treatments. In each comparison, a p-value and fold change were computed for all microarray loci. In addition to p-values, q-values were computed. While the p-value measures the minimum statistical false-positive rate incurred when setting a threshold for test significance, the q-value measures the minimum false-discovery rate incurred when calling that test significant.
The generated contigs and the remaining orphan sequences were used for further analyses using the program BLAST2GO for identification and annotation. By using the inbuilt BLASTx algorithm, these sequences were used as queries in BLASTx searches against the Genbank non-redundant (nr) database with an e-value cut-off of ≤1e-03. The putative identification, annotation, and Gene Ontology (GO) terms for the sequences also were obtained through BLAST2GO. KEGG analyses were also performed.

In assay [3] the test system is hindgut protist symbiont populations. As to the kind of experiment: Protist counts after imidacloprid treatment. Conditions: 48 hr imidacloprid exposure. The format is in vivo, R. flavipes. How it is done:
To determine if imidacloprid indirectly or directly impacted protist and bacteria gut symbiont populations, post-hoc tests were performed using multiple independent termite colonies. Protist counts were made using five laboratory colonies as previously described. Bacterial CFU counts were done via aerobic culturing using two laboratory colonies; one that had been in the lab for >2 years (“colony 1”) and one collected from the field 1 month earlier (“colony 2”). […] Whole guts dissected from individual termites were sonicated in 250 μL of PBS, serially diluted, and spotted (2 μL) onto nutrient agar plates.

Assay [4] concerns gut bacteria (16S rDNA abundance). As to the kind of experiment: 16S qPCR of relative bacterial DNA abundance in guts. The assay is classed as in vivo, R. flavipes. Conditions: 48 hours exposure; two colonies. How it is done: as §1
DNA was isolated from termite whole guts following control or imidacloprid treatments in bioassays using the Epicentre Yeast DNA extraction kit, including RNase treatment (Madison, Wis.). Following isolation, DNA samples were subjected to phenol-chloroform cleanup and concentrated using sodium acetate-ethanol precipitation. qPCR reactions were performed in triplicate with SensiFast SYBR No ROX kit (Bioline; Taunton, Mass.), 50 ng of sample DNA, nuclease-free water, and degenerate 16S rDNA primers. Primers amplified a 291 bp fragment containing the V4 hypervariable region of the 16S rRNA gene. Host DNA was quantified using primers specific to an apparent single-copy host gene, Actin 5C-1. Data were normalized to Actin 5C-1 to determine the relative abundance of 16S amplicons in the control and imidacloprid-treated DNA preparations.
(In general: Real-time PCR tracks product formation cycle by cycle.)

Assay [5] concerns Reticulitermes flavipes. As to the kind of experiment: Termite behavior and pathology observed in the bioassays (grooming, tunneling, light repellency). The format is in vivo. Conditions: sublethal concentration.
Assay [6] concerns amidohydrolase 2 gene. The assay is described as follows: qPCR of amidohydrolase 2 expression after kanamycin treatment and B. bassiana challenge. The assay is classed as in vivo, R. flavipes. Conditions: 5% kanamycin 48 h, then B. bassiana; compared to water treated controls. The source says:
To investigate whether symbiont removal reduced amidohydrolase expression, groups of 10 workers from three independent colonies were subjected to a treatment of 5% kanamycin (controls received water only) for 48-hours and subsequently challenged with a low dose of B. bassiana conidia (as above). 5% Kanamycin was used for bacterial symbiont removal based on extensive preliminary research. These bioassays were held for 48-hours before termite guts were dissected for RNA extraction. cDNA was synthesized using the Bioline SensiFast cDNA Synthesis kit using 1 μg total RNA as template. qPCR was performed using the SensiFast no ROX SYBR Master Mix (Bioline) and amidohydrolase 2 gene specific primers as well as Actin 5C as a reference gene (see Table S.2 of the Peterson & Scharf Article).

Assay [7] relates to termite workers challenged with B. bassiana. The assay is described as follows: Post-hoc bioassay of termite susceptibility to B. bassiana after kanamycin. The assay is classed as in vivo, R. flavipes. How it is done: Similarly, post-hoc bioassays were performed to determine if 5% kanamycin treatment was sufficient to increase termite susceptibility to B. bassiana. As above, groups of 10 termites were treated with 5% kanamycin or water (controls) for 48-hours, and then inoculated with a low dose of B. bassiana conidia suspended in 0.5% Tween-20 or a blank of 0.5% Tween-20 solution (controls). All together, these four groups allowed the investigators to account for any baseline mortality caused by antibiotic treatment. These bioassays were held for 7 days before scoring survivorship.

[8] abbreviates: gut, 2 days post-exposure, vs solvent control.
The mark [9] stands for this setting: passing array positions, before contig formation.

On to `O=[N+]([O-])NC1=NCCN1Cc1ccc(Cl)nc1` [I, imidacloprid], for which the “Growth suppression of culturable gut bacteria by imidacloprid-impregnated paper discs” value in assay [1] is recorded as “failed to suppress the growth”. Further, the “Effect on expression of innate immune / antimicrobial genes” value in assay [2] (gut, 2 days) was “failed to substantially alter”. In assay [2] (setting [8]), the “Differentially expressed contigs and singletons, Overall” value came to 393; the “Downregulated contigs and singletons, Host” value came out at 8; the “Downregulated contigs and singletons, Mixed” value is 3; the “Downregulated contigs and singletons, Symbiont” value is reported as 205. In addition, in assay [2] (setting [8]), the “Downregulated contigs and singletons, Totals” value came out at 216; the “Upregulated contigs and singletons, Mixed” value was found to be 1; the “Upregulated contigs and singletons, Symbiont” value is listed as 19; the “Upregulated contigs and singletons, Totals” value is reported as 177. Moreover, in assay [2] (setting [9]), the Downregulated array positions is given as 504 and the “Upregulated transcripts in the array (array positions)” value came out at 260. Besides, in assay [3], the “Reduction of representative protist groups” value is recorded as 25-50% and the “Treated termite colonies with reduced protist populations” value is given as 5 of 6. Also, in assay [4], the “Effect on total bacterial DNA abundance (16S PCR signals)” value was “did not detect any impact”. Moreover, the “Termite behaviors (tunneling, grooming, light repellency)” value in assay [5] is “neither produced tunnels nor were repelled by light”.
`NC[C@H]1O[C@H](O[C@H]2[C@H](O)[C@@H](O[C@H]3O[C@H](CO)[C@@H](O)[C@H](N)[C@H]3O)[C@H](N)C[C@@H]2N)[C@H](O)[C@@H](O)[C@@H]1O` [kanamycin]: the “Reduction of amidohydrolase 2 gene expression in pathogen challenged termites” value in assay [6] is reported as roughly 5 ×. The “Increase in termite susceptibility to B. bassiana” value in assay [7] (5% kanamycin 48 h, normalized mortality at 7 days post inoculation) is listed as 3 ×. Moreover, in assay [7] (5% kanamycin, 7 days), the “Increase in termite worker susceptibility to B. bassiana” value is given as 3 fold.
